Patent US12263248B2, “Compounds and compositions for intracellular delivery of therapeutic agents” (ModernaTX, Inc., priority 2018, dated 2025)
Marks after values point to notes of the source that are not given here. Blank lines part the entries; values can stand above or below the compound they belong to.

Assays:
hEPO mRNA [1] = experiment: hEPO expression after intravenous administration to rats; assay type: in vivo, rat; details: for Lipid/MC3 hEPO conc. ratio 0.2 mpk / Lipid/MC3 hEPO conc. ratio 2 mpk: rats; for Lipid/MC3 hEPO expression: 6 hours after administration
Method in brief: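 Rats dosed intravenously once with nanoparticle composition, 0.2 or 2.0 mpk, formulated by the standard MC3 method. Tail-vein blood sampled at 6 h or at time points from 0.25 to 48 h. hEPO measured by ELISA.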

[2] = Residual lipid levels in rat liver and spleen (UPLC-MS); assay type: in vivo; details: for % Lipid Remaining in liver, 48 h: 2 mpk, assuming 300 g rat and 15 g liver
Method in brief: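 Rats received a single intravenous dose of lipid nanoparticle composition, and liver tissue was later collected to quantify residual lipid. Weighed tissue was homogenized in Milli-Q water (900 μL per 100 mg tissue) using an Omni probe homogenizer. 50 μL aliquots were mixed with 400 μL spiking solution, vortexed, centrifuged, and analyzed by UPLC on a C8 column with positive-mode ESI detection on a Sciex API5500 mass spectrometer.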

[3] = ALT and AST after intravenous administration to rat (Table 19A); assay type: in vivo
Protocol: Table 19A summarizes the hEPO expression, IP-10 induction, liver and spleen levels, and alanine aminotransferase (ALT) and aspartate aminotransferase (AST) measured upon intravenous administration of formulations including Compounds 48, 49, and 50 to rat at 0.2 and 2 mpk and hEPO mRNA. hEPO concentrations were measured 6 hours after administration, while cytokine induction and liver and spleen levels were measured 48 hours after administration. hEPO and IP-10 concentrations are presented in pg/ml, while liver levels are provided in ng/g. ALT and AST levels are presented in international units.

[4] = Chemical stability of lipids in ethanol (lipid purity); assay type: physicochemical
Protocol: Ester linkages were previously reported to trigger metabolism by esterases in vivo. (See Fukami, T. et al. Drug Metab. Pharmacokinet. 2012, 27, 466-477, the content of which is incorporated by reference herein in its entirety). […] (See Maier M. A., Mol. Ther. 2013, 21, 1570-1578, the content of which is incorporated herein in its entirety) First, the chemical stability of the lipids was evaluated by measuring ethanol stability at room temperature and 37° C. (Table 39). […] LNPs formed with compound 138 were larger, with a surface pKa>7. […] Removal of one ester function (compound 136) afforded LNPs with improved physiochemical characteristics and lower LNP surface pKa.

[5] = Lipid clearance: lipid level in mouse liver tissue (LC-MS/MS); assay type: in vivo
sC5b-9 = experiment: Complement activation in vitro (sC5b-9 levels); assay type: cell-based; details: human cells contacted in vitro
Method in brief: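 Human cells exposed in vitro to nanoparticle compositions, with the soluble terminal complement complex sC5b-9 measured as a marker of complement activation.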

hEPO mRNA [6] = experiment: hEPO expression and cytokine induction after intravenous administration to mice; assay type: in vivo
Protocol: The expression of hEPO and cytokine induction in mice intravenously administered a nanoparticle composition at a dose of 0.5 mpk were measured at 3, 6, and 24 hours. […] The expression of hEPO in mice intramuscularly administered a nanoparticle composition from Table 1B at a dose of 0.01 mpk were measured at 3, 6, and 24 hours.
Blood collection and analysis for hEPO. Blood was collected from mice or rats via the tail vein and hEPO concentrations were determined using a hEPO ELISA assay.

[7] = rat, intravenous, 0.2 mpk, 6 hours
[8] = rat, intravenous, 2 mpk, 6 hours
[9] = mice, intravenous, 0.5 mpk, 6 h

% Lipid Remaining in liver, 48 h ([2]; rats, 48 h): 12.6%
Structure (SMILES): CCCCCCCCC(CC)OC(=O)CCCCCCCN(CCO)CCCCCCCC(=O)OC(CCCCCCCC)CCCCCCCC (stereo not shown) [Compound 49, heptadecan-9-yl 8-((2-hydroxyethyl)(8-oxo-8-(undecan-3-yloxy)octyl)amino)octanoate]
hEPO expression (hEPO mRNA [1]; [7]): 3.17e+06 pg/mL
hEPO expression (hEPO mRNA [1]; [8]): 3.04e+07 pg/mL
Lipid/MC3 hEPO conc. ratio 0.2 mpk (hEPO mRNA [1]; intravenous, 0.2 mpk, 6 hours): 4.13
Lipid/MC3 hEPO conc. ratio 2 mpk (hEPO mRNA [1]; intravenous, 2 mpk, 6 hours): 3.28
ALT ([3]; 0.2 mpk): 54.0 international units
AST ([3]; 0.2 mpk): 99.4 international units
ALT ([3]; 2 mpk): 77.8 international units
AST ([3]; 2 mpk): 132.4 international units

Structure (SMILES): CCCCCCCCC(CCC)OC(=O)CCCCCCCN(CCO)CCCCCCCC(=O)OC(CCCCCCCC)CCCCCCCC (stereo not shown) [Compound 50, dodecan-4-yl 8-((8-(heptadecan-9-yloxy)-8-oxooctyl)(2-hydroxyethyl)amino)octanoate]
hEPO expression (hEPO mRNA [1]; [7]): 2.62e+06 pg/mL
hEPO expression (hEPO mRNA [1]; [8]): 2.81e+07 pg/mL
Lipid/MC3 hEPO conc. ratio 0.2 mpk (hEPO mRNA [1]; intravenous, 0.2 mpk, 6 hours): 3.41
Lipid/MC3 hEPO conc. ratio 2 mpk (hEPO mRNA [1]; intravenous, 2 mpk, 6 hours): 3.03
% Lipid Remaining in liver, 48 h ([2]; rats, 48 h): 15.9%
ALT ([3]; 0.2 mpk): 59.2 international units
AST ([3]; 0.2 mpk): 143.2 international units
ALT ([3]; 2 mpk): 78.8 international units
AST ([3]; 2 mpk): 158.4 international units

Structure (SMILES): CCCCCCCCC(C)OC(=O)CCCCCCCN(CCO)CCCCCCCC(=O)OC(CCCCCCCC)CCCCCCCC (stereo not shown) [Compound 48, decan-2-yl 8-((8-(heptadecan-9-yloxy)-8-oxooctyl)(2-hydroxyethyl)amino)octanoate]
Lipid/MC3 hEPO expression (hEPO mRNA [1]; 0.2 mpk dose to rat): 5.39
Lipid/MC3 hEPO expression (hEPO mRNA [1]; 2 mpk dose to rat): 3.84
hEPO expression (hEPO mRNA [1]; [7]): 4.06e+06 pg/mL
hEPO expression (hEPO mRNA [1]; [8]): 3.57e+07 pg/mL
Lipid/MC3 hEPO conc. ratio 0.2 mpk (hEPO mRNA [1]; intravenous, 0.2 mpk, 6 hours): 5.39
Lipid/MC3 hEPO conc. ratio 2 mpk (hEPO mRNA [1]; intravenous, 2 mpk, 6 hours): 3.84
% lipid remaining in liver after 48 hours [2]: 11.4%
% Lipid Remaining in liver, 48 h ([2]; rats, 48 h): 7.22%
ALT ([3]; 0.2 mpk): 59.6 international units
AST ([3]; 0.2 mpk): 140.8 international units
ALT ([3]; 2 mpk): 66.0 international units
AST ([3]; 2 mpk): 131.2 international units

Structure (SMILES): CCCCCCCCCOC(=O)CCCCCCCN(CCO)CCCCCCCC(=O)OC(CCCCCCCC)CCCCCCCC [Compound 18, Heptadecan-9-yl 8-((2-hydroxyethyl)(8-(nonyloxy)-8-oxooctyl)amino)octanoate]
Lipid Purity ([4]; t = 0): 94.37%
Lipid Purity ([4]; t = 96 h, 25° C.): 94.71%
Lipid Purity ([4]; t = 96 h, 37° C.): 95.01%
% dose remaining Mouse liver tissue, 24 h ([5]; CD-1 mouse liver 24 h after 0.5 mg/kg bolus dose mRNA, n = 5 ± S.D.): 0%
original dose remaining in liver tissue 24 hours post dose ([5]; mice, intravenous): no lipid detected
Lipid/MC3 hEPO expression (hEPO mRNA [1]; 2 mpk dose to rat): 0.81
hEPO expression (hEPO mRNA [1]; rat, 6 h, 2 mpk, i.v.): 9.96e+06 pg/mL
hEPO expression 0.25 h (hEPO mRNA [1]; rat, intravenous, 0.2 mpk, 0.25 h): 20227 pg/mL
hEPO expression 0.5 h (hEPO mRNA [1]; rat, intravenous, 0.2 mpk, 0.5 h): 20743 pg/mL
hEPO expression 1 h (hEPO mRNA [1]; rat, intravenous, 0.2 mpk, 1 h): 194353 pg/mL
hEPO expression 2 h (hEPO mRNA [1]; rat, intravenous, 0.2 mpk, 2 h): 238107 pg/mL
hEPO expression 4 h (hEPO mRNA [1]; rat, intravenous, 0.2 mpk, 4 h): 514807 pg/mL
hEPO expression 8 h (hEPO mRNA [1]; rat, intravenous, 0.2 mpk, 8 h): 915320 pg/mL
hEPO expression 24 h (hEPO mRNA [1]; rat, intravenous, 0.2 mpk, 24 h): 412051 pg/mL
hEPO expression 48 h (hEPO mRNA [1]; rat, intravenous, 0.2 mpk, 48 h): 52361 pg/mL
Lipid/MC3 hEPO conc. ratio 2 mpk (hEPO mRNA [1]; intravenous, 2 mpk, 6 hours): 0.81
% dose remaining Rat liver tissue, 48 h ([2]; Sprague Dawley rat liver 48 h after 2 mg/kg bolus dose mRNA): 0.02^e %
% lipid remaining in liver after 48 hours [2]: 0.018%
% Lipid Remaining in liver, 48 h ([2]; rats, 48 h): 0.018%
% remaining dose in liver, 48 h ([2]; rats, intravenous, 2.0 mpk, 48 h): <1%
Fold increase in sC5b-9 levels versus saline (sC5b-9): 1.28
sC5b-9 levels relative to saline (sC5b-9; in words): somewhat increase
hEPO expression and average total flux compared with MC3 (hEPO mRNA [6]; Table 12 comparison, in words): outperform MC3
hEPO concentrations compared with MC3 formulations (hEPO mRNA [6]; mice, i.v., 0.5 mpk, 3, 6 and 24 hours): higher hEPO concentrations than MC3 formulations
hEPO expression 3 h (hEPO mRNA [6]; mice, intravenous, 0.5 mpk, 3 h): 3e+06 pg/mL
Average hEPO concentration (pg/ml, 6 h) (hEPO mRNA [6]; [9]): 3.38e+06 pg/mL
Cytokine expression IL-6 (6 h) (hEPO mRNA [6]; [9]): 10.16 pg/mL
Cytokine expression IP-10 (6 h) (hEPO mRNA [6]; [9]): 299.93 pg/mL
hEPO expression 6 h (hEPO mRNA [6]; [9]): 3.38e+06 pg/mL
Fold increase in hEPO concentration relative to MC3 (hEPO mRNA [6]; mice, intravenous, 0.5 mpk, 6 h, Table 12): 1.85
hEPO expression 24 h (hEPO mRNA [6]; mice, intravenous, 0.5 mpk, 24 h): 1.8e+06 pg/mL
